Where “and” joins values, the source holds several entries; their conditions need not be identical. Equal entries are not always repeated. Calls of active or inactive are those of the source. No rule for the calls is given here.
Test system: PPC-1 cells, TRAIL-induced apoptosis potentiation
Experiment: TRAIL sensitization of PPC-1 cells, potency – analog series, SAR follow-up (AID 1752)

With `CC(Sc1nc(-c2ccccc2)cc(C(F)(F)F)n1)C(=O)N1CCCC1` (stereo not drawn) the IC50 was > 10 µM (inactive).

For `CSc1nc(-c2ccc(C)cc2)nc(C(Cl)Cl)n1`, the IC50 was 0.372 µM and 0.602 µM.

For `CSc1nc(-c2ccccc2)nc(C(C)C)n1`, the IC50 was > 10 µM (inactive).

For `CSc1nc(-c2ccccc2)nc(-c2ccccc2)n1`, the IC50 was > 10 µM (inactive).

`COc1cc(-c2ccccc2)[nH]c(=S)n1` was tested, and the IC50 was > 10 µM (inactive).

For `CCSc1nc(-c2ccccc2)cc(=O)[nH]1`, the IC50 was > 10 µM (inactive).

With `CSc1nc(-c2ccccc2)nc(-c2ccccc2OC(C)=O)n1` the IC50 was > 10 µM (inactive).

For `CCSc1cc(N2CCCC2)nc(-c2ccc(Cl)cc2)n1`, the IC50 was > 10 µM (inactive).

Reference: PubChem BioAssay AID1752 (Sanford-Burnham Center for Chemical Genomics, 2009)
